Structures are written as SMILES.

For data set [1] the following is noted: human serum; cited from earlier work.
For the next data set, the system named is E. cloacae Hennessy. In words: MIC by agar dilution (NCCLS), de-repressed Class C β-lactamases. The format is cell-based. The conditions noted are these: unit assumed. How it is done:
(§1) The assays to determine the Minimum Inhibitory Concentration (MIC) were performed by Agar dilution according to NCCLS guidelines (2000).
(Agar dilution tests growth on a series of plates holding different concentrations.)

For the next data set, the system named is E. cloacae 84-CON. Described as above. The conditions noted are these: unit assumed. The format is cell-based. As to the method: as §1
The subject of another data set is S marcescens S2-con. The data set is described as above. The format is cell-based. Conditions: unit assumed. How it is done: as §1
The subject of the next data set is E. cloacae P99. Described as above. The data set is classed as cell-based. Conditions: unit assumed. As to the method: as §1
The subject of another data set is C. freundii C2-con. The data set is described as above. The conditions noted are these: unit assumed. The data set is classed as cell-based. As to the method:
as §1

A further data set concerns E. coli TEM-10. Kind of data set: MIC by agar dilution (NCCLS), Class A β-lactamases. The data set is classed as cell-based. Conditions: CAZ alone or 2:1 ratio of ceftazidime with oxapenem, unit assumed. As to the method:
as §1

For the next data set, the system named is E. coli TEM-3. Kind of data set: MIC by agar dilution (NCCLS), Class A β-lactamases. The format is cell-based. Conditions: CAZ alone or 2:1 ratio of ceftazidime with oxapenem, unit assumed. As to the method:
as §1

The next data set relates to E. coli TEM-1. Kind of data set: MIC by agar dilution (NCCLS), Class A β-lactamases. The data set is classed as cell-based. The conditions noted are these: CAZ alone or 2:1 ratio of ceftazidime with oxapenem, unit assumed. How it is done:
as §1

The next data set concerns E. coli ATCC 25922. In words: MIC by agar dilution (NCCLS), Class A β-lactamases. The format is cell-based. The conditions noted are these: CAZ alone or 2:1 ratio of ceftazidime with oxapenem, unit assumed. As to the method: as §1
In another data set the test system is E. coli TEM-6. In words: MIC by agar dilution (NCCLS), Class A β-lactamases. The format is cell-based. The conditions noted are these: CAZ alone or 2:1 ratio of ceftazidime with oxapenem, unit assumed. How it is done:
as §1

The subject of another data set is E. coli TEM-9. Kind of data set: MIC by agar dilution (NCCLS), Class A β-lactamases. The data set is classed as cell-based. Conditions: CAZ alone or 2:1 ratio of ceftazidime with oxapenem, unit assumed. How it is done: as §1
Data set [2] can be described thus: Plasma blood levels in mice following subcutaneous administration. The data set is classed as in vivo. The conditions noted are these: for bioavailability: sub-cutaneous administration, compared with salts XOB and U. As to the method: The plasma blood levels in mice (mean of 3 per time point) of compositions XOB, YOB, PFOB and […] were measured at time points of 5, 10, 20 and 30 minutes following subcutaneous (SC) administration at a dose of 50 mg per kg. The results are shown in Table 2 and illustrated in FIG. 1.

A short description of data set [3]: Stability in blood serum, determined microbiologically by agar diffusion test. The data set is classed as in vitro ADME, bovine. As to the method:
The blood serum stability was determined microbiologically using an agar diffusion test with Escherichia coli TEM 1 (penicillin resistant). The oxapenems were incubated with sterile bovine serum (OXOID) at 37° C. in 0.033% concentration.
For orientation: A growth-free zone around the sample is the usual read-out of agar diffusion tests.

The nature of data set [4]: Chemical stability: half-life of hydrolysis in phosphate buffer by UV spectroscopy. The data set is classed as physicochemical. The conditions noted are these: 37° C., physiological phosphate buffer pH 7.4, 10^−4M oxapenem. As to the method: The half-lives of hydrolysis were determined at 37° C. in physiological phosphate buffer pH 7.4 by UV spectroscopy at 265 nm at a 10^−4M concentration of oxapenem

The mark [5] stands for this setting: CAZ alone or 1:1 ratio of ceftazidime with oxapenem.
The mark [6] stands for this setting: CAZ alone or 2:1 ratio of ceftazidime with oxapenem.

`CO/N=C(\C(=O)N[C@@H]1C(=O)N2C(C(=O)O)=C(CSc3nc(=O)c(=O)[nH]n3C)CS[C@H]12)c1csc(N)n1` [Ceftriaxon]: the “in vivo biological half life” value in [1] is on record as 5.8-8.7 hrs.

As for `C[C@@H](O)[C@H]1C(=O)N2C(C(=O)O)=C(SCCN=CN)C[C@H]12` [Imipenem], the “in vivo biological half life” value in [1] is listed as 0.9 hrs.

Broadly, the MIC is the lowest concentration found to suppress growth. Regarding `CC(C)(O/N=C(\C(=O)N[C@@H]1C(=O)N2C(C(=O)[O-])=C(C[n+]3ccccc3)CS[C@H]12)c1csc(N)n1)C(=O)O` [CAZ, Ceftazidime], the “in vivo biological half life” value in data set [1] is reported as 1.7-2.1 hrs. The MIC with E. cloacae Hennessy (setting [5]) was over 64 µg/mL; in the data set with E. cloacae Hennessy (setting [6]), over 64 µg/mL; in the data set on E. cloacae 84-CON (setting [5]), over 64 µg/mL; in the data set with E. cloacae 84-CON (setting [6]) it was over 64 µg/mL; in the data set with S marcescens S2-con (setting [5]) it was 1 µg/mL; with S marcescens S2-con (setting [6]) it was 1 µg/mL. Besides, the MIC in the data set on E. cloacae P99 (setting [5]) was 32 µg/mL; in the data set with E. cloacae P99 (setting [6]), 32 µg/mL; in the data set on C. freundii C2-con (setting [5]), 64 µg/mL; in the data set with C. freundii C2-con (setting [6]) it was 64 µg/mL; in the data set on E. coli TEM-10, over 64 µg/mL; in the data set on E. coli TEM-3, 16 µg/mL. For the same compound, the MIC in the data set on E. coli TEM-1 is 0.25 µg/mL; in the data set on E. coli ATCC 25922, 0.25 µg/mL; with E. coli TEM-6, over 64 µg/mL; with E. coli TEM-9, over 64 µg/mL.

For the compound `C[C@@H](O)[C@H]1C(=O)N2C(C(=O)O)=C(C(C)(C)CCCN)O[C@H]12` [(5R,6R,1′R)-3-(4-amino-1,1-dimethylbutyl)-6-(1′-hydroxyethyl)-7-oxo-4-oxa-1-azabicyclo[3.2.0]hept-2-ene-2-carboxylic Acid], the MIC in the data set with E. cloacae Hennessy (setting [6]) worked out at 4 µg/mL; with E. cloacae 84-CON (setting [5]), 4 µg/mL; with E. cloacae 84-CON (setting [6]), 4 µg/mL; with S marcescens S2-con (setting [5]), 0.03 µg/mL; with C. freundii C2-con (setting [5]) it was 0.03 µg/mL; in the data set with C. freundii C2-con (setting [6]) it was 2 µg/mL. Further, the concentration at 5 min in data set [2] (mouse, plasma, SC 50 mg per kg, 5 min, mean of 3, read-out: Conc. (mg/L) 5 min) was 26.4 mg/L. In addition, the concentration at 10 min in [2] (mouse, plasma, SC 50 mg per kg, 10 min, mean of 3, read-out: Conc. (mg/L) 10 min) was determined as 25.4 mg/L. Besides, the concentration at 20 min in data set [2] (mouse, plasma, SC 50 mg per kg, 20 min, mean of 3, read-out: Conc. (mg/L) 20 min) was 12.9 mg/L. Besides, the concentration at 30 min in [2] (mouse, plasma, SC 50 mg per kg, 30 min, mean of 3, read-out: Conc. (mg/L) 30 min) worked out at 2.89 mg/L. For the same compound, in data set [2], the bioavailability result is reported as “remarkably superior bioavailability”.

As to `C[C@H](O)[C@H]1C(=O)N2C(C(=O)O)=C(C(C)(C)CCCN)O[C@H]12` [YOB, (5R,6R,1′S)-3-(4-amino-1,1-dimethylbutyl)-6-(1-hydroxyethyl)-7-oxo-4-oxa-1-azabicyclo[3.2.0]hept-2-ene-2-carboxylic Acid], the “Conc. (mg/L) 5 min” value in data set [2] (plasma, SC 50 mg per kg, 5 min, mean of 3) is reported as 40.12 mg/L. Further, the “Conc. (mg/L) 10 min” value in data set [2] (plasma, SC 50 mg per kg, 10 min, mean of 3) stood at 44.88 mg/L. For the same compound, the “Conc. (mg/L) 20 min” value in data set [2] (plasma, SC 50 mg per kg, 20 min, mean of 3) is reported as 13.79 mg/L. In data set [2] (plasma, SC 50 mg per kg, 30 min, mean of 3), the “Conc. (mg/L) 30 min” value is reported as 10.4 mg/L. Besides, in [2], the bioavailability result is on record as “remarkably superior bioavailability”. The MIC was found to be 0.06 µg/mL in the data set on E. coli TEM-1 and 0.03 µg/mL in the data set with E. coli ATCC 25922. Also, the “stability in blood serum” value in [3] (bovine serum, 37° C., compared to XOB) was “far more stable than XOB in blood serum”. Also, the “Serum half life at 37° C.” value in [3] (sterile bovine serum, 0.033% concentration) is recorded as 2.4 h. In addition, the Half-live of hydrolysis in [4] was determined as 7.0 h.

For the compound `O=C(O)[C@H]1/C(=C/CO)O[C@@H]2CC(=O)N21` [Clavulanate], the “in vivo biological half life” value in data set [1] is given as 0.7-1.4 hrs.

Source of the values: patent US7247622B2, “Pharmaceutical compositions containing oxapenem-3-carboxylic acids” (Amura Limited, priority 2000, dated 2007).
